Test results published in patent publication US20220363689A1, “INHIBITOR OF BTK AND MUTANTS THEREOF” (Newave Pharmaceutical Inc., priority 2019, published 2022).

What was measured:
Type in all cases: biochemical
[1] = molecular target: T1, WT BTK (Homo sapiens, UniProt Q06187); assay: In vitro dialysis assay (irreversibility assay), WT BTK; settings: reversible or irreversible/covalent inhibition after 24 h dialysis
Procedure: The compound-enzyme complex was dialyzed against the same buffer supplemented with 40 mM ATP for 24 hr. Cumulative dialysis factor>160,000×. After dialysis, the BTK activity was measured in the presence […] and 1 mM substrate peptide and compared to that in non-dialyzed samples. Assay buffer: 100 mM HEPES, pH7.5; […]; 5 mM MgCl2; 1 mM DTT. In this study, Ibrutiib (a FDA approved irreversible BTK inhibitor) was used as a positive control and Saurosporine (a reversible BTK inhibitor) was used as a negative control.

[2] = molecular target: T1, WT BTK; assay: Caliper-based kinase assay, WT BTK; settings: 0.5 nM enzyme, ATP 16 μM, room temperature 3 h; read-out: WT BTK IC50 (nM) (irreversible inhibition)
Procedure: (§1) A Caliper-based kinase assay (Caliper Life Sciences, Hopkinton, Mass.) was used to measure inhibition of WT and […] Btk kinase activity of a compound of the present disclosure. […] The reaction was then terminated with EDTA, final concentration 20 mM and the phosphorylated reaction product was quantified on a Caliper Desktop Profiler (Caliper LabChip 3000).

[3] = molecular target: C481S Btk (Homo sapiens, UniProt Q06187, C481S); assay: Caliper-based kinase assay, C481S BTK; settings: 0.5 nM enzyme, ATP 16 μM, room temperature 3 h; read-out: C481S BTK IC50 (nM) (reversible inhibition)
Procedure: as §1

C481S Btk, sequence (Q06187 whole entry C481S): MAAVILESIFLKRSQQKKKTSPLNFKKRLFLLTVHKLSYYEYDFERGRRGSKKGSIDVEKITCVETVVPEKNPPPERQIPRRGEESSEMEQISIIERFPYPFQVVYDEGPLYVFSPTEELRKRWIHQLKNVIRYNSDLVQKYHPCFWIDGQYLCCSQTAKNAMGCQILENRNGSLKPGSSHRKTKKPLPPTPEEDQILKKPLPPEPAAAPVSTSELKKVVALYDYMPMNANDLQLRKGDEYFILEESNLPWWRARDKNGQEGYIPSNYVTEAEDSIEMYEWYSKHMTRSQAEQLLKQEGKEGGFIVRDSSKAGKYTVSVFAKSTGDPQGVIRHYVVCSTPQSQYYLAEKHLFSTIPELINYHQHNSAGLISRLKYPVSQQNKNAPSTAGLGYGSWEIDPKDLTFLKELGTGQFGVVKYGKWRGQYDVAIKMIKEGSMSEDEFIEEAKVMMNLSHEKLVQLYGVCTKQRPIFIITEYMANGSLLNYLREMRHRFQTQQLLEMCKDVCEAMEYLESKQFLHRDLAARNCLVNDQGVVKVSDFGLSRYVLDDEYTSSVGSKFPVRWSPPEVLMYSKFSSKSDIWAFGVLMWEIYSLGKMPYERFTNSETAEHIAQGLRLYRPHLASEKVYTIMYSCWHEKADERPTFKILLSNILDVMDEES
T1 sequence (Q06187 whole entry): as the sequence (Q06187 whole entry C481S) above, with S481C counted along it

Compound	Conclusion (WT BTK) [1]	IC50 [2]	IC50 [3]
C=CC(=O)Nc1cc(Nc2nc(-c3ccnc(N4CCn5c(cc6c5CC(C)(C)C6)C4=O)c3CO)cn(C)c2=O)ccc1N1CCC(N2CCC(F)(F)CC2)CC1 [Example 20, N-(2-[4,4-difluoro-[1,4′-bipiperidin]-1′-yl]-5-[[6-(2-[4,4-dimethyl-9-oxo-1,10-diazatricyclo[6.4.0.0^[2,6]]dodeca-2(6),7-dien-10-yl]-3-(hydroxymethyl)pyridin-4-yl)-4-methyl-3-oxopyrazin-2-yl]amino]phenyl)prop-2-enamide]	Irreversible/covalent inhibition	0.053 nM	0.4 nM
C=CC(=O)Nc1cc(Nc2nc(-c3ccnc(N4CCn5c(cc6c5CC(C)(C)C6)C4=O)c3C)cn(C)c2=O)ccc1N1CCC(N2CCOCC2)CC1.Cl [Example 18, N-(5-[[6-(2-[4,4-dimethyl-9-oxo-1,10-diazatricyclo[6.4.0.0^[2,6]]dodeca-2(6),7-dien-10-yl]-3-methylpyridin-4-yl)-4-methyl-3-oxopyrazin-2-yl]amino]-2-[4-(morpholin-4-yl)piperidin-1-yl]phenyl)prop-2-enamide hydrochloride]	Irreversible/covalent inhibition	0.18 nM	11.4 nM
C=CC(=O)Nc1cc(Nc2nc(-c3ccnc(N4CCn5c(cc6c5CC(C)(C)C6)C4=O)c3C)cn(C)c2=O)ccc1N1CCC(N2CCOCC2)CC1C [Example 17, N-(5-[[6-(2-[4,4-dimethyl-9-oxo-1,10-diazatricyclo[6.4.0.0^[2,6]]dodeca-2(6),7-dien-10-yl]-3-methylpyridin-4-yl)-4-methyl-3-oxopyrazin-2-yl]amino]-2-[(2S)-2-methyl-4-(morpholin-4-yl)piperidin-1-yl]phenyl)prop-2-enamide]	Irreversible/covalent inhibition	0.1 nM	7.1 nM
C=CC(=O)Nc1cc(Nc2nc(-c3ccnc(N4CCc5c(sc6c5CCC6(C)C)C4=O)c3CO)cn(C)c2=O)ccc1N1CCN(C2COC2)C[C@@H]1C [Example 35, N-(5-[[6-(2-[5,5-dimethyl-9-oxo-7-thia-10-azatricyclo[6.4.0.0^[2,6]]dodeca-1(8),2(6)-dien-10-yl]-3-(hydroxymethyl)pyridin-4-yl)-4-methyl-3-oxopyrazin-2-yl]amino]-2-[(2S)-2-methyl-4-(oxetan-3-yl)piperazin-1-yl]phenyl)prop-2-enamide]	Irreversible/covalent inhibition	0.13 nM	17.9 nM
C=CC(=O)Nc1cc(Nc2nc(-c3ccnc(N4CCCn5c(cc6c5CC(C)(C)C6)C4=O)c3CO)cn(C)c2=O)ccc1N1CCN([C@H]2C[C@@H](C)O[C@@H](C)C2)C[C@@H]1C [Example 38, N-(5-[[6-(2-[4,4-dimethyl-9-oxo-1,10-diazatricyclo[6.5.0.0^[2,6]]trideca-2(6),7-dien-10-yl]-3-(hydroxymethyl)pyridin-4-yl)-4-methyl-3-oxopyrazin-2-yl]amino]-2-[(2S)-2-methyl-4-[(2R,4r,6S)-2,6-dimethyloxan-4-yl]piperazin-1-yl]phenyl)prop-2-enamide]	Irreversible/covalent inhibition	0.073 nM	0.26 nM
C=CC(=O)Nc1cc(Nc2nc(-c3ccnc(N4CCc5c(sc6c5CCCC6)C4=O)c3CO)cn(C)c2=O)ccc1N1CCN(C2COC2)C[C@@H]1C [Example 36, N-[5-([6-[3-(hydroxymethyl)-2-[6-oxo-8-thia-5-azatricyclo[7.4.0.0^[2,7]]trideca-1(9),2(7)-dien-5-yl]pyridin-4-yl]-4-methyl-3-oxopyrazin-2-yl]amino)-2-[(2S)-2-methyl-4-(oxetan-3-yl)piperazin-1-yl]phenyl]prop-2-enamide]	Irreversible/covalent inhibition	0.1 nM	1.1 nM

Now from value to compound:

Conclusion (WT BTK) [1]	IC50 [2]	IC50 [3]	Compound
Irreversible/covalent inhibition	0.04 nM	0.4 nM	C=CC(=O)Nc1cc(Nc2nc(-c3ccnc(N4CCn5c(cc6c5CC(C)(C)C6)C4=O)c3CO)cn(C)c2=O)ccc1N1CCC(N2CCN(C)CC2)CC1 [Example 21, N-(5-[[6-(2-[4,4-dimethyl-9-oxo-1,10-diazatricyclo[6.4.0.0^[2,6]]dodeca-2(6),7-dien-10-yl]-3-(hydroxymethyl)pyridin-4-yl)-4-methyl-3-oxopyrazin-2-yl]amino]-2-[4-(4-methylpiperazin-1-yl)piperidin-1-yl]phenyl)prop-2-enamide]
Irreversible/covalent inhibition	0.06 nM	0.34 nM	C=CC(=O)Nc1cc(Nc2nc(-c3ccnc(N4CCn5c(cc6c5CC(C)(C)C6)C4=O)c3CO)cn(C)c2=O)ccc1N1CCN(C2CCOC2)C[C@@H]1C (stereo partly drawn) [Example 39, N-(5-[[6-(2-[4,4-dimethyl-9-oxo-1,10-diazatricyclo[6.4.0.0^[2,6]]dodeca-2(6),7-dien-10-yl]-3-(hydroxymethyl)pyridin-4-yl)-4-methyl-3-oxopyrazin-2-yl]amino]-2-[(2S)-2-methyl-4-(oxolan-3-yl)piperazin-1-yl]phenyl)prop-2-enamide]
Irreversible/covalent inhibition	0.35 nM	0.5 nM	C=CC(=O)Nc1cc(Nc2nc(-c3ccnc(N4CCn5c(cc6c5CC(C)(C)C6)C4=O)c3CO)cn(C)c2=O)ccc1C1CN(C)C(=O)CN1C1COC1 (stereo not drawn) [Example 43]
Irreversible/covalent inhibition	0.24 nM	0.3 nM	C=CC(=O)Nc1cc(Nc2nc(-c3ccnc(N4CCn5c(cc6c5CC(C)(C)C6)C4=O)c3CO)cn(C)c2=O)ccc1C1CN(C2COC2)CC(=O)N1C (stereo not drawn) [Example 42, N-(5-[[6-(2-[4,4-dimethyl-9-oxo-1,10-diazatricyclo[6.4.0.0^[2,6]]dodeca-2(6),7-dien-10-yl]-3-(hydroxymethyl)pyri-din-4-yl)-4-methyl-3-oxopyrazin-2-yl]amino]-2-[1-methyl-4-(oxetan-3-yl)-6-oxopiperazin-2-yl]phenyl)prop-2-enamide]
Irreversible/covalent inhibition	0.27 nM	0.61 nM	C=CC(=O)Nc1cc(Nc2nc(-c3ccnc(N4CCn5c(cc6c5CC(C)(C)C6)C4=O)c3CO)cn(C)c2=O)ccc1C1C(=O)N(C)CCN1C1COC1 (stereo not drawn) [Example 41]
Irreversible/covalent inhibition	0.048 nM	0.49 nM	C=CC(=O)Nc1cc(Nc2nc(-c3ccnc(N4CCn5c(cc6c5CC(C)(C)C6)C4=O)c3CO)cn(C)c2=O)ccc1N1CCN(C2CCC(F)(F)CC2)C[C@@H]1C [Example 23, N-[2-[(2S)-4-(4,4-difluorocyclohexyl)-2-methylpiperazin-1-yl]-5-[[6-(2-[4,4-dimethyl-9-oxo-1,10-diazatricyclo[6.4.0.0^[2,6]]dodeca-2(6),7-dien-10-yl]-3-(hydroxymethyl)pyridin-4-yl)-4-methyl-3-oxopyrazin-2-yl]amino]phenyl]prop-2-enamide]
Irreversible/covalent inhibition	0.046 nM	0.25 nM	C=CC(=O)Nc1cc(Nc2nc(-c3ccnc(N4CCn5c(cc6c5CC(C)(C)C6)C4=O)c3CO)cn(C)c2=O)ccc1N1CCC(N2CCOCC2)CC1C (stereo not drawn) [Example 12, N-(5-((6-(2-(7,7-dimethyl-1-oxo-1,3,4,6,7,8-hexahydro-2H-cyclopenta[4,5]pyrrolo[1,2-a]pyrazin-2-yl)-3-(hydroxymethyl)pyridin-4-yl)-4-methyl-3-oxo-3,4-dihydropyrazin-2-yl)amino)-2-(2-methyl-4-morpholinopiperidin-1-yl)phenyl)acrylamide]
Irreversible/covalent inhibition	0.25 nM	15.9 nM	C=CC(=O)Nc1cc(Nc2nc(-c3ccnc(N4CCn5c(cc6c5CC(C)(C)C6)C4=O)c3C)cn(C)c2=O)ccc1N1CCN(C2COC2)C[C@@H]1C [Example 11, (S)—N-(5-((6-(2-(7,7-dimethyl-1-oxo-1,3,4,6,7,8-hexahydro-2H-cyclopenta[4,5]pyrrolo[1,2-a]pyrazin-2-yl)-3-methylpyridin-4-yl)-4-methyl-3-oxo-3,4-dihydropyrazin-2-yl)amino)-2-(2-methyl-4-(oxetan-3-yl)piperazin-1-yl)phenyl)acrylamide]
Irreversible/covalent inhibition	0.076 nM	0.32 nM	C=CC(=O)Nc1cc(Nc2nc(-c3ccnc(N4CCCn5c(cc6c5CC(C)(C)C6)C4=O)c3CO)cn(C)c2=O)ccc1N1CCN(C2COC2)C[C@@H]1C [Example 29, N-(5-[[6-(2-[4,4-dimethyl-9-oxo-1,10-diazatricyclo[6.5.0.0^[2,6]]trideca-2(6),7-dien-10-yl]-3-(hydroxymethyl)pyridin-4-yl)-4-methyl-3-oxopyrazin-2-yl]amino]-2-[(2S)-2-methyl-4-(oxetan-3-yl)piperazin-1-yl]phenyl)prop-2-enamide]
